Values quoted from earlier work in patent publication US8728553B2, “Vitamin containing product” (Nattopharma ASA, priority 2000, dated 2014).

Settings: intake of 5 g butter to which 800 μg MK-4 had been added (equivalent to 16 mg MK-4 per 100 g butter)

Q: With `CC(C)=CCC/C(C)=C/CC/C(C)=C/CC/C(C)=C/CC1=C(C)C(=O)c2ccccc2C1=O` [MK-4, menaquinone (MK-4)] as the compound, how does the “MK-4 levels in blood serum” value read?
A: The value was “increased”.
